Results published in ChEMBL document CHEMBL1201862, “PubChem BioAssay data set” (2004).
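Grown in 96-well plates, cells were treated for 48 hours with each compound at five concentrations. Insufficient inhibition: endpoint recorded as highest concentration tested. At the GI50, growth is halved.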 The source made the active and inactive calls. No stated cut-off is given here; in the data, active = GI50 up to about 1.1 µM and inactive = higher.

What was measured:
Assay in all cases: DTP human tumour cell line panel, 48 h
OVCAR-4 = system: OVCAR-4
SF-268 = system: SF-268
UACC-62 = system: UACC-62
HCC 2998 = system: HCC 2998
LOX IMVI = system: LOX IMVI
SK-MEL-2 = system: SK-MEL-2
HT-29 = system: HT-29
SK-OV-3 = system: SK-OV-3
NCI-H23 = system: NCI-H23
COLO 205 = system: COLO 205
Malme-3M = system: Malme-3M
HOP-62 = system: HOP-62
MOLT-4 = system: MOLT-4
SF-539 = system: SF-539
SR = system: SR
UO-31 = system: UO-31
HOP-18 = system: HOP-18
MDA-MB-231 = system: MDA-MB-231
T47D = system: T47D
MDA-N = system: MDA-N

| SMILES | GI50 (OVCAR-4) | GI50 (SF-268) | GI50 (UACC-62) | GI50 (HCC 2998) | GI50 (LOX IMVI) | GI50 (SK-MEL-2) | GI50 (HT-29) | GI50 (SK-OV-3) | GI50 (NCI-H23) | GI50 (COLO 205) | GI50 (Malme-3M) | GI50 (HOP-62) | GI50 (MOLT-4) | GI50 (SF-539) | GI50 (SR) | GI50 (UO-31) | GI50 (HOP-18) | GI50 (MDA-MB-231) | GI50 (T47D) | GI50 (MDA-N) |
| --- | --- | --- | --- | --- | --- | --- | --- | --- | --- | --- | --- | --- | --- | --- | --- | --- | --- | --- | --- | --- |
| C=CCNC(=O)/C=C\C(=O)O | > 100 µM (inactive) | > 100 µM (inactive) | > 100 µM (inactive) | > 100 µM (inactive) | > 100 µM (inactive) | > 100 µM (inactive) | > 100 µM (inactive) | > 100 µM (inactive) | > 100 µM (inactive) | > 100 µM (inactive) | > 100 µM (inactive) | > 100 µM (inactive) | > 100 µM (inactive) | > 100 µM (inactive) | > 100 µM (inactive) | > 100 µM (inactive) | > 100 µM (inactive) | – | – | – |
| COC1C(C)OC(OC2CC(C)(O)Cc3cc4c(c(O)c32)C(=O)c2c(O)cc3c(c2C4=O)OC2OC3(C)C(O)C(N(C)C)C2O)C(OC)C1(C)OC (centres undefined) | 0.19 µM (active) | 0.00484 µM (active) | 0.016 µM (active) | 0.0342 µM (active) | 0.00316 µM (active) | 0.0158 µM (active) | 0.0243 µM (active) | 0.136 µM (active) | 0.00496 µM (active) | 0.0179 µM (active) | 0.0561 µM (active) | 0.0527 µM (active) | 0.00469 µM (active) | 0.00348 µM (active) | 0.00385 µM (active) | 0.411 µM (active) | 0.11 µM (active) | 0.00129 µM (active) | 2.9e-05 µM (active) | 0.00053 µM (active) |
| CCC[S+]([O-])c1nc(COC(=O)NC)c(COC(=O)NC)n1C (centres undefined) | > 100 µM (inactive) | > 100 µM (inactive) | > 100 µM (inactive) | > 100 µM (inactive) | > 100 µM (inactive) | > 100 µM (inactive) | > 100 µM (inactive) | > 100 µM (inactive) | > 100 µM (inactive) | > 100 µM (inactive) | > 100 µM (inactive) | > 100 µM (inactive) | > 100 µM (inactive) | > 100 µM (inactive) | > 100 µM (inactive) | > 100 µM (inactive) | > 100 µM (inactive) | – | – | – |
| O=NN(CCCl)C(=O)NC1CCC(=O)NC1=O (centres undefined) | 893 µM (inactive) | 38.7 µM (inactive) | 25.5 µM (inactive) | 713 µM (inactive) | 48.2 µM (inactive) | 225 µM (inactive) | 807 µM (inactive) | 526 µM (inactive) | 277 µM (inactive) | 267 µM (inactive) | 221 µM (inactive) | 144 µM (inactive) | 49.2 µM (inactive) | 50.8 µM (inactive) | 25.4 µM (inactive) | 676 µM (inactive) | 432 µM (inactive) | 286 µM (inactive) | 384 µM (inactive) | 224 µM (inactive) |
